Where a name gives a salt, the structure may show the parent alone.
Tested on: post-PTCA restenosis
Assay: Clinical study of inhibition of post-PTCA restenosis, evaluated from coronary angiographic findings
Assay type: in vivo, patients with angina pectoris
Protocol: In 18 patients with angina pectoris in whom elective PTCA was indicated, 6-(1-imidazolylmethyl)- 5,6,7,8-tetrahydronaphthalene-2-carboxylic acid hydrochloride hemihydrate (hereinafter, referred to as Compound A) was administered orally in a dose of 200 mg three times a day after each meal (600 mg/day) pre-angioplasty, beginning about three days before PTCA, and post angioplasty for 3 months (treated group). Coronary angiography was performed before, immediately after, and 3 months after PTCA. Based on the coronary angiographic findings, inhibition of restenosis of the right coronary artery, left anterior descending artery and left circumflex artery was evaluated, by site of lesion, according to the criteria in Table 1 shown below. Further, based on the results of the evaluation, overall efficacy evaluation by individual patient was made.
In regard to luminal diameter: • 1. Excellent post-angioplasty course: unchanged or expanded • 2. Good post-angioplasty course: a decrease in luminal diameter of less than 50% • 3. Poor post-angioplasty course: a decrease in luminal diameter of 50% or more and less than 100% • 4. Worse post-angioplasty course: a decrease in luminal diameter of 100% or progression of stenosis as compared with pre-PTCA condition
As controls (control group), placebo was similarly administered to 15 patients with angina pectoris in whom effective PTCA was indicated and coronary angiography was performed before and after PTCA.
In both of the treated and control groups, calcium antagonists, viz. nifedipine and diltiazem, antianginal drugs, viz. ISDN and nicorandil, and antiarteriosclerotic agents, viz. elastase, etc. were used concurrently as necessary as shown in Table 2 below. However, there was no significant difference (χ² test) between the two groups in the use of concomitant drugs, as in other patient characteristics.

[1] = Left Anterior Descending Artery, number of lesions rated (of 9), 600 mg/day oral, 3 months after PTCA
[2] = Left Circumflex Artery, number of lesions rated (of 11), 600 mg/day oral, 3 months after PTCA
[3] = Right Coronary Artery, number of lesions rated (of 8), 600 mg/day oral, 3 months after PTCA
[4] = Total, number of lesions rated (of 28), Wilcoxon test P=0.100 vs control group
[5] = number of patients rated (of 18), Wilcoxon test P=0.010 vs control group

SMILES: O=C(O)c1ccc2c(c1)CCC(Cn1ccnc1)C2 (stereo not drawn) [Compound A, 6-(1-imidazolylmethyl)-5,6,7,8-tetrahydronaphthalene-2-carboxylic acid hydrochloride hemihydrate]
- Overall Efficacy Evaluation, by Individual Patient: Excellent, Cumulative % (18 patients): (38.9%)
- Overall Efficacy Evaluation, by Individual Patient: Good, Cumulative % (18 patients, Excellent plus Good): (77.8%)
- Evaluation of coronary angiographic findings by site of lesion: Excellent [1]: 4
- Evaluation of coronary angiographic findings by site of lesion: Good [1]: 3
- Evaluation of coronary angiographic findings by site of lesion: Poor [1]: 1
- Evaluation of coronary angiographic findings by site of lesion: Worse [1]: 1
- Evaluation of coronary angiographic findings by site of lesion: Excellent [2]: 2
- Evaluation of coronary angiographic findings by site of lesion: Good [2]: 7
- Evaluation of coronary angiographic findings by site of lesion: Poor [2]: 1
- Evaluation of coronary angiographic findings by site of lesion: Worse [2]: 1
- Evaluation of coronary angiographic findings by site of lesion: Excellent [3]: 3
- Evaluation of coronary angiographic findings by site of lesion: Good [3]: 4
- Evaluation of coronary angiographic findings by site of lesion: Poor [3]: 0
- Evaluation of coronary angiographic findings by site of lesion: Worse [3]: 1
- Evaluation of coronary angiographic findings by site of lesion: Excellent, Cumulative % (Total of 28 lesions): (32.1%)
- Evaluation of coronary angiographic findings by site of lesion: Good, Cumulative % (Total of 28 lesions, Excellent plus Good): (83.1%)
- Evaluation of coronary angiographic findings by site of lesion: Excellent [4]: 9
- Evaluation of coronary angiographic findings by site of lesion: Good [4]: 14
- Evaluation of coronary angiographic findings by site of lesion: Poor [4]: 2
- Evaluation of coronary angiographic findings by site of lesion: Worse [4]: 3
- Overall Efficacy Evaluation, by Individual Patient: Excellent (number of patients rated (of 18), Wilcoxon test P=0.010, Fisher test (excellent ratings) P=0.009 vs control group): 7
- Overall Efficacy Evaluation, by Individual Patient: Good [5]: 7
- Overall Efficacy Evaluation, by Individual Patient: Poor [5]: 3
- Overall Efficacy Evaluation, by Individual Patient: Worse [5]: 1

Source: patent EP0385381A2, “Inhibitor of restenosis after percutaneous transluminal coronary angioplasty” (DAIICHI PHARMACEUTICAL CO., LTD., priority 1989, dated 1990)
